Experimental data taken from US20060045953A1 (priority 2004, published 2006).

molecular target: T1, hT1R1/hT1R3 umami receptor (Homo sapiens, UniProt Q7RTX0+Q7RTX1); assay: In vitro hT1R1/hT1R3 umami taste receptor activation assay (FLIPR, dose response); assay type: cell-based; conditions: read-out: EC50 for activation of a hT1R1/hT1R3 umami receptor expressed in an HEK293 cell line
T1 construct: expressed in transfected cells; host or cells: HEK293 derivative stably expressing Gα15, clone I-17, expression induced with mifepristone
T1 sequence (Q7RTX1 21-841): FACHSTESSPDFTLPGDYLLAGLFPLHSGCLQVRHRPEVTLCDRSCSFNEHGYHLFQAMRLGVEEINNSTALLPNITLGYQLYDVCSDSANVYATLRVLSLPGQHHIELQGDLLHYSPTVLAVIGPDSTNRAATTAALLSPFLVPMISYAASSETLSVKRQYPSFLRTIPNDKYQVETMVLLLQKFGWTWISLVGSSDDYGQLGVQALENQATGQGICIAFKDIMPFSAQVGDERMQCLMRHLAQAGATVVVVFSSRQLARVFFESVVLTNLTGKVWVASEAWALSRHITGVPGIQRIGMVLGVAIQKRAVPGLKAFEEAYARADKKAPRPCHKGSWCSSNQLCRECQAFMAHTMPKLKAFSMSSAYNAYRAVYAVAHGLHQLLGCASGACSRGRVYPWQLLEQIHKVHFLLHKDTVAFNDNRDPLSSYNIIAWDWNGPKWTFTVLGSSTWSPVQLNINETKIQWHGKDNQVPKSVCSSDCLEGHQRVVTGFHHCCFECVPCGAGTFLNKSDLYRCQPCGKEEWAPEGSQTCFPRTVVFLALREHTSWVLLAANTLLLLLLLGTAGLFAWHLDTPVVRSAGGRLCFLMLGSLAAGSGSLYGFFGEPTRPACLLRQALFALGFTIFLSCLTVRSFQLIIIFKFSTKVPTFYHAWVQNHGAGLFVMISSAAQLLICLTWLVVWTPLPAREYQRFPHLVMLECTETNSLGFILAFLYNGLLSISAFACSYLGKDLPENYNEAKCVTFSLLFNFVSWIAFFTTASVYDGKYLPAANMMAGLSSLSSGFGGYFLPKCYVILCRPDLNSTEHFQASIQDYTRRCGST
T1 sequence (Q7RTX0 21-852): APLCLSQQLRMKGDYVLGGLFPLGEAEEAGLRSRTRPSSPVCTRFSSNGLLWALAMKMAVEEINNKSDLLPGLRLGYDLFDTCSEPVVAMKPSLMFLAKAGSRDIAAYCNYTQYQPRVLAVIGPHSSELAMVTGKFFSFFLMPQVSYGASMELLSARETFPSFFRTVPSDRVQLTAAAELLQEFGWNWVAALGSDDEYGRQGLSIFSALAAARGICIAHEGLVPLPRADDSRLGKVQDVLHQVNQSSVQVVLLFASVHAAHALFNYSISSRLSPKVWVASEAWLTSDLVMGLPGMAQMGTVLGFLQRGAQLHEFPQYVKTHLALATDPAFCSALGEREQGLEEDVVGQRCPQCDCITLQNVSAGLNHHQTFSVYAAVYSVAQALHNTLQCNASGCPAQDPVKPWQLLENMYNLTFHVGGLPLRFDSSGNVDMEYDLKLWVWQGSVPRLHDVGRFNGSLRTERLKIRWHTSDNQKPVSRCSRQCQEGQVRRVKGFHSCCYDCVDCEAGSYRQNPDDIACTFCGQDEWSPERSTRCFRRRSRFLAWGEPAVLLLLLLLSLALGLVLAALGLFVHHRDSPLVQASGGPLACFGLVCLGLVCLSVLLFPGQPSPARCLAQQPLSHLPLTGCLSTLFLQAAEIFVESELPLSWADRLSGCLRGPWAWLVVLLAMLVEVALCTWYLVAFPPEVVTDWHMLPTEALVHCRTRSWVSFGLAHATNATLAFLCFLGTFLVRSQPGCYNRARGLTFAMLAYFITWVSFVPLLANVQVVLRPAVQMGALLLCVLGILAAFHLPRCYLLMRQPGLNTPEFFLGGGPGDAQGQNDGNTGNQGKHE
Text: In order to identify new savory flavoring agents and enhancers, including compounds with savory agonist and enhancer activities (dual activity), the compounds of Formula (I) were screened in primary assays and secondary assays including compound dose response and enhancement assay. In a primary assay for potential ability to modulate umami taste, amide compounds of Formula (I) that can be either savory flavoring agents in their own right or flavor enhancers of MSG are identified and scores of their activities are given as percentage of the maximum MSG intensity (%). In compound dose response, an EC50 is calculated to reflect the potency of the compound as a savory agonist or enhancer.
An HEK293 cell line derivative (See e.g., Chandrashekar, et al., Cell (2000) 100: 703-711) which stably expresses Gα15 and hT1R1/hT1R3 under an inducible promoter (see WO 03/001876 A2) was used to identify compounds with savory tasting properties.
For dose-responses analysis, stimuli were presented in duplicates at 10 different concentrations ranging from 1.5 nM to 30 μM. Activities were normalized to the response obtained with 60 mM monosodium glutamate, a concentration that elicits maximum receptor response. […] Identical results were obtained when analyzing the dose-response data using commercially available software for non-linear regression analysis such as GraphPad PRISM (San Diego, Calif.).

Structure (SMILES)	EC50 [nM]
COC(=O)[C@@H](CC1CCCCC1)NC(=O)c1cc2cc(OC)ccc2o1 [Example 30, (R)-methyl 3-cyclohexyl-2-(5-methoxybenzofuran-2-carboxamido)propanoate]	1140
CCC(CC(C)C)NC(=O)c1cc2cc(OC)ccc2o1 (centres unmarked) [Example 31, 5-methoxy-N-(5-methylhexan-3-yl)benzofuran-2-carboxamide]	1040
COC(=O)[C@@H](CC(C)C)NC(=O)c1cc2cc(Cl)ccc2o1 [Example 32]	820
COC(=O)[C@@H](CC(C)C)NC(=O)c1oc2ccccc2c1C [Example 33, (R)-methyl 4-methyl-2-(3-methylbenzofuran-2-carboxamido)pentanoate]	1180
CCCC(CCC)NC(=O)c1cc2ccccc2s1 [Example 34, N-(heptan-4-yl)benzo[b]thiophene-2-carboxamide]	210
CCCC(CCC)NC(=O)c1cc2ccccc2[nH]1 [Example 35, N-(heptan-4-yl)-1H-indole-2-carboxamide]	6800
COC(=O)[C@@H](CC(C)C)NC(=O)c1cc2cc(C)ccc2[nH]1 [Example 36, (R)-methyl 4-methyl-2-(5-methyl-1H-indole-2-carboxamido)pentanoate]	6600
CCCC(CCC)NC(=O)c1cc2ccccc2n1C [Example 37, N-(heptan-4-yl)-1-methyl-1H-indole-2-carboxamide]	1790
CCCC(CCC)NC(=O)c1ccc2[nH]cnc2c1 [Example 38, N-(heptan-4-yl)-1H-benzo[d]imidazole-5-carboxamide]	18600
CCCC(CCC)NC(=O)c1ccc2ocnc2c1 [Example 39, benzooxazole-5-carboxylic acid (1-propylbutyl)amide]	1910
CCCC(CCC)NC(=O)c1ccc2oc(C)nc2c1 [Example 40, 2-Methyl-benzooxazole-5-carboxylic acid (1-propyl-butyl)-amide]	330
CCCC(CCC)NC(=O)c1ccc2nc(C)oc2c1 [Example 46, 2-Methyl-benzooxazole-6-carboxylic acid (1-propyl-butyl)-amide]	2100
CCCC(CCC)NC(=O)c1ccc(C)c(SC)c1 [Example 48, 4-methyl-3-methylsulfanyl-N-(1-propylbutyl)benzamide]	210
COC(=O)[C@@H](CC(C)C)NC(=O)c1ccc(C)c(SC)c1 [Example 49, (R)-methyl 4-methyl-2-(4-methyl-3-(methylthio)benzamido)pentanoate]	100
COC(=O)[C@@H](CC(C)C)NC(=O)c1ccc(SC)cc1 [Example 50, (R)-methyl 4-methyl-2-(4-(methylthio)benzamido)pentanoate]	160
CCCC(CC(C)C)NC(=O)c1ccc(OC)c(C)c1 (centres unmarked) [Example 52, 4-methoxy-3-methyl-N-(2-methylheptan-4-yl)benzamide]	100
CCC(CC(C)C)NC(=O)c1ccc(OC)c(C)c1 (centres unmarked) [Example 53, 4-methoxy-3-methyl-N-(5-methylhexan-3-yl)benzamide]	90
CCCC(NC(=O)c1ccc(OC)c(C)c1)c1ccc(OC)cc1 (centres unmarked) [Example 54, 4-methoxy-N-(1-(4-methoxyphenyl)butyl)-3-methylbenzamide]	3140
COc1ccc(C(=O)N[C@H](CC(C)C)c2nc(C)no2)cc1C [Example 55, (R)-4-methoxy-3-methyl-N-(3-methyl-1-(3-methyl-1,2,4-oxadiazol-5-yl)butyl)benzamide]	5400

Structure (SMILES)	EC50 [nM]
CCCC(CCC)NC(=O)c1ccc(OCC)c(C)c1 [Example 56, 4-ethoxy-N-(heptan-4-yl)-3-methylbenzamide]	170
CCCC(COC)NC(=O)c1ccc(OCC)c(C)c1 (centres unmarked) [Example 57, 4-ethoxy-N-(1-methoxypentan-2-yl)-3-methylbenzamide]	690
CCCC(CCC)NC(=O)c1ccc(O)c(C)c1 [Example 58, 4-hydroxy-3-methyl-N-(1-propyl-butyl)-benzamide]	920
CCCC(CCC)NC(=O)c1ccc(OCCOC)c(C)c1 [Example 59, N-(heptan-4-yl)-4-(2-methoxyethoxy)-3-methylbenzamide]	210
COC(=O)[C@@H](CC(C)C)NC(=O)c1ccc(OC)c(F)c1 [Example 60, (R)-methyl 2-(3-fluoro-4-methoxybenzamido)-4-methylpentanoate]	300
CCC(CC)NC(=O)c1ccc(OC)c(Cl)c1 [Example 61, 3-chloro-4-methoxy-N-(pentan-3-yl)benzamide]	560
COC(=O)[C@@H](CC(C)C)NC(=O)c1ccc(OC)c(Cl)c1 [Example 62, (R)-methyl 2-(3-chloro-4-methoxybenzamido)-4-methylpentanoate]	80
COc1ccc(C(=O)N[C@H](C)c2ccccc2)cc1Cl [Example 63, (R)-3-chloro-4-methoxy-N-(1-phenylethyl)benzamide]	2500
CCCC(CCC)NC(=O)c1ccc(Cl)c(C)c1 [Example 64, 4-Chloro-3-methyl-N-(1-propyl-butyl)-benzamide]	800
CCCC(CCC)NC(=O)c1ccc(OC)c(OC)c1 [Example 65, 3,4-Dimethoxy-N-(1-propyl-butyl)-benzamide]	360
COC(=O)[C@@H](CC(C)C)NC(=O)c1ccc(F)c(C)c1 [Example 66, (R)-methyl 2-(4-fluoro-3-methylbenzamido)-4-methylpentanoate]	320
CCCC(NC(=O)c1ccc(C)c(C)c1)C(C)C (centres unmarked) [Example 68, 3,4-dimethyl-N-(2-methylhexan-3-yl)benzamide]	110
CCCC(CC(C)C)NC(=O)c1ccc(C)c(C)c1 (centres unmarked) [Example 69, 3,4-dimethyl-N-(2-methylheptan-4-yl)benzamide]	130
CCC(CC(C)C)NC(=O)c1ccc(C)c(C)c1 (centres unmarked) [Example 70, 3,4-dimethyl-N-(5-methylhexan-3-yl)benzamide]	170
COCOC[C@@H](CC(C)C)NC(=O)c1ccc(C)c(C)c1 [Example 72, (R)-N-(1-(methoxymethoxy)-4-methylpentan-2-yl)-3,4-dimethylbenzamide]	1060
COCC(NC(=O)c1ccc(C)c(C)c1)C(C)C (centres unmarked) [Example 73, N-(1-Methoxymethyl-2-methyl-propyl)-3,4-dimethyl-benzamide]	870
COC(=O)[C@@H](CC(C)C)NC(=O)c1ccc(SC)cc1OC [Example 74, (R)-methyl 2-(2-methoxy-4-(methylthio)benzamido)-4-methylpentanoate]	15800
CCC(CC(C)C)NC(=O)/C=C/c1ccc(OC)cc1 (centres unmarked) [Example 75]	240
CCC(CC)NC(=O)/C=C/c1ccc(OCCO)cc1 [Example 76, N-(1-Ethyl-propyl)-3-[4-(2-hydroxy-ethoxy)-phenyl]-acrylamide]	5800
